Results from patent publication US11559512B2, “Composition for prevention, alleviation, and/or treatment of heat illness” (priority 2017, dated 2023).
“Also recorded” adds a separate entry of the source.

Columns and labels:
[1] = test system: ABCD3; assay: ABCD3 expression in HUVECs, antibody staining, confocal microscopy; type: cell-based, human; conditions: usual culture and heat stress load (40° C. for 3 days), vs DMSO
Experimental: (§1) Then, six 35-mm dishes were provided, and 2 mL/dish of the solution with the adjusted HUVEC density was inoculated. Auraptene (10 mM) and tangeretin (10 mM) were each added at 2 μL (final concentration: 10 μM)/dish to two dishes. Also, DMSO was added at 2 μL/dish to the remaining 2 dishes to prepare a control.
The supernatant of the HUVECs cultured in each 35-mm dish was removed, and 2 mL/dish of 4% paraformaldehyde in a phosphate buffer solution was added. The cells were left standing at room temperature for 1 hour.
The solution was removed, and then, the cells were rinsed twice. 2 mL/dish of 0.5% Triton-X00 (Wako Pure Chemical Industries, Ltd.) in PBS was added, and the cells were left standing at room temperature for 5 minutes. The solution was removed, and then, the cells were rinsed twice. 1 mL/dish of an anti-ABCD3 antibody, an anti-PPARα antibody or an anti-PPARγ antibody, each of which was diluted 150-fold with a FACS buffer, was added, and the cells were left standing at room temperature for 2 hours for reaction.
The solution was removed, and then, the cells were rinsed twice. […] Two drops of Diamond Antifade Mountant with DAPI were added to the cells, and a round glass cover was put on the cells, followed by fluorescence photographing under a confocal laser scanning microscope.

[2] = test system: CCL-2; assay: CCL-2 concentration in supernatant of lymphocytes under heat stress load (ELISA); type: cell-based, human
Experimental: 10 mL of human peripheral blood was collected and anti-coagulated with heparin, and 10 mL of PBS(−) was added thereto and stirred. 15 mL of Lymphocyte Separation Medium 1077 (PromoCell GmbH) was layered thereon so as not to mix blood thereinto, followed by blood separation at 1600 rpm for 30 minutes in a centrifuge. The mononuclear cell layer thus separated was collected into a dropper, added to 20 mL of a culture medium, and centrifuged at 1500 rpm for 5 minutes in a centrifuge. The supernatant was removed, and then, 20 mL of a culture solution was added to the cells and stirred. The cells were centrifuged again at 1500 rpm for 5 minutes in a centrifuge. The supernatant was removed, and then, 10 mL of a culture medium was added to the cells and stirred. The whole amount was added to a 10-cm dish and incubated at 37° C. for 1 hour in a 5% CO2 environment. […] The solution with the adjusted lymphocyte density was inoculated at 4 mL/well to 2 wells of each 6-well plate. […] Then, the supernatant was recovered into a 1.5-mL Eppendorf tube and centrifuged at 8000 rpm for 5 minutes in a centrifuge. […]
The solution was removed, and each well was washed four times. […] TMB Microwell Peroxidase Substrate was added at 100 μL/well, followed by the absorbance measurement of the reaction solution in a plate reader at 450 nm.

[3] = test system: fat droplets in human vascular endothelial cells (HUVECs); assay: Intracellular fat droplets, BODIPY staining, confocal microscopy; type: cell-based
Experimental: as §1, with “Then, nine” for “Then, six”, “to three” for “to two”, “remaining 3” for “remaining 2”
The supernatant of the HUVECs cultured in each 35-mm dish was removed, and 2 mL/dish of 4% paraformaldehyde in a phosphate buffer solution was added. The cells were left standing at room temperature for 1 hour for cell fixation. The solution was removed, and then, the cells were rinsed twice. 1 mL/dish of BODIPY diluted 2000-fold with a FACS buffer was added, and the cells were left standing at room temperature for 30 minutes in the dark for reaction.
The solution was removed, and then, the cells were rinsed twice. Two drops of Diamond Antifade Mountant with DAPI were added to the cells, and a round glass cover was put on the cells, followed by fluorescence photographing under a confocal laser scanning microscope.

[4] = test system: human vascular endothelial cells (HUVECs); assay: DiOC6 / PI staining and flow cytometry of HUVECs under heat stress load; type: cell-based; conditions: heat stress load 40° C. for 2 days, flow cytometry, vs DMSO
Experimental: Two days later, the culture solution of each well was removed with an aspirator. […] The supernatant was removed, and then, 5 mL of a culture medium at 37° C. was added to the cells and stirred. After the stirring, DiOC6 (final concentration: 80 nM) was added to each 15-mL tube and reacted at the same temperature as the culture temperature for 30 minutes.
The supernatant was removed, and then, 1 mL of a culture medium was added to the cells, and 2 μL of PI (Sigma-Aldrich Co. LLC) was added. The cells thus supplemented were transferred to a FACS tube and measured in a flow cytometer (BD).
In order to quantify the effects, the cytotoxicity suppressive effects of auraptene (component A) and tangeretin (component T) inhibiting the cell death caused by the load of heat stress were quantified using DiOC6 staining and flow cytometry as described above. The DiOC6 dye is a reagent for measuring mitochondrial activity and is a reagent that can perform measurement based on the attenuation of the amount of fluorescence by cytotoxicity (cell death, etc.).

**Q.** How did the “change in the expression of ABCD3” value [1] turn out when `CC(C)=CCC/C(C)=C/COc1ccc2ccc(=O)oc2c1` [auraptene, 7-geranyloxycoumarin] was run?
**A.** Its value is “change in the expression of ABCD3 was not observed; also recorded: not found”.

**Q.** And the “CCL-2 sample A” value ([2]; peripheral blood lymphocytes sample A, 40° C., auraptene 10 μM, non-addition 61 ± 0.2)?
**A.** Its value is 32 ± 1.7 pg/mL.

**Q.** And the “production of CCL-2” value ([2]; peripheral blood lymphocytes under heat stress load, vs DMSO, p<0.05)?
**A.** The value was “significantly suppressed”.

**Q.** And the “amount of fat droplets under heat stress load” value ([3]; HUVECs, 40° C. for 2 days, 10 μM, BODIPY, vs DMSO)?
**A.** The value was “decrease in the amount of fat droplets; also recorded: decreased the amount of fat droplets”.

**Q.** What about the “amount of fat droplets at usual culture” value ([3]; HUVECs, usual culture (37° C.), 10 μM, vs DMSO) of the same compound?
**A.** The value was “no change in the amount of fat droplets”.

**Q.** And the “Amount of fat droplets” value ([3]; Table 2 summary, HUVECs 40° C., 37° C. as comparative control)?
**A.** The value was “Decreased”.

**Q.** What about the “number of DiOC6 staining-positive cells (suppression of cytotoxicity, cell death)” value [4] of the same compound?
**A.** Its value is “increased the number of DiOC6 staining-positive cells”.
